| melting point | SMILES |
| --- | --- |
| 194 °C | O=c1[nH]c2ccccc2n1Cc1ccccc1 [Example 11, 1-benzyl-1,3-dihydro-2H-benzimidazol-2-one] |
| 148 °C | CS/C=C(/C)n1c(=O)n(Cc2cc(C(F)(F)F)cc(C(F)(F)F)c2)c2ccccc21 [Example 6, 1-[3,5-bis(trifluoromethyl)benzyl]-3-[(1Z)-1-(methylsulfanyl)prop-1-en-2-yl]-1,3-dihydro-2H-benzimidazol-2-one] |
| 110 °C | CS/C=C(/C)n1c(=O)n(C)c2cc(F)ccc21 [Example 10, 5-fluoro-3-methyl-1-[(1Z)-1-(methylsulfanyl)prop-1-en-2-yl]-1,3-dihydro-2H-benzimidazol-2-one] |
| 194 °C | CS/C=C(/C)n1c(=O)n(C)c2ccc(C(F)(F)F)cc21 [Example 9, 1-methyl-3-[(1Z)-1-(methylsulfanyl)prop-1-en-2-yl]-5-(trifluoromethyl)-1,3-dihydro-2H-benzimidazol-2-one] |

Continued, compound first:

| SMILES | melting point |
| --- | --- |
| CS/C=C(/C)n1c(=O)n(C)c2ccccc21 [Example 1, 1-methyl-3-[(1Z)-1-(methylsulfanyl)prop-1-en-2-yl]-1,3-dihydro-2H-benzimidazol-2-one] | 66 °C (dec.) |
| CS/C=C(/C)n1c(=O)n(Cc2ccccc2)c2ccccc21 [Example 2, 1-benzyl-3-[(1Z)-1-(methylsulfanyl)prop-1-en-2-yl]-1,3-dihydro-2H-benzimidazol-2-one] | 227 °C (dec.) |
| CCn1c(=O)n(/C(C)=C\SC)c2ccccc21 [Example 5, 1-ethyl-3-[(1Z)-1-(methylsulfanyl)prop-1-en-2-yl]-1,3-dihydro-2H-benzimidazol-2-one] | 74 °C |
